Patent US20230285317A1, “DILUENTS, STANDARDIZATION AGENTS AND VISCOSITY CONTROL FOR CANNABINOIDS FORMULATIONS AND METHODS THEREOF” (Scientific Holdings, LLC, priority 2022, published 2023)

Assays:
[1] = Long-term solubility and oil stability of cannabinoids in CBC at room temperature; type: physicochemical; conditions: solid cannabinoid in CBC
Procedure: In an example embodiment, the solubility of a number of solid cannabinoid isolates in concentrations of 10-80 percent by mass were evaluated in CBC, a viscous oil at room-temperature. Solubility is assessed at 25 degrees (Celsius), after heating to 35 degrees (Celsius), after heating to 70 degrees (Celsius), and after heating to 100 degrees (Celsius). The solubility of cannabinoids with CBC is then observed at room temperature at various time points after formulation to determine long-term solubility and oil stability.
The samples were then heated at an appropriate temperature for 15 total minutes in a water bath and then if any of the CBD remained solid, the vial would be heated for 15 minutes at the next temperature level. A glass thermometer was used to observe and record the temperature. All eight vials corresponding to the eight concentrations of CBD in CBC became a homogeneous mass upon 6-8 minutes heating at 70 degrees (Celsius).
The samples were then heated at an appropriate temperature for 15 total minutes in a water bath and then if any of the CBG remained solid the vial would be heated for 15 minutes at the next temperature level. A glass thermometer was used to observe and record the temperature. […] The viscosity of the solution containing 50% CBG (Vial 13) and 60% CBG (Vial 14) increased upon standing for 35 to 40 minutes at room temperature.
The samples were then heated at an appropriate temperature for 15 total minutes in a water bath and then if any of the CBDA remained solid the vial would be heated for 15 minutes at the next temperature level. A glass thermometer was used to observe and record the temperature. […] But no solids were evident after 4 minutes at 100 degrees (Celsius). […] Vials 20 through 24, containing […] CBDA respectively in 10 weight percent increments, were homogenous liquids after 7 minutes at 100° C. The samples containing 30% CBDA to 60% CBDA became very viscous but remained liquid after 20 minutes at room temperature.
After day 1, the samples containing 10% to 80% CBD appeared more viscous but remained homogeneous oils. […]

[2] = Solubility of CBG in bisabolol; type: physicochemical
Text: Roughly 10% of the original amount of CBG seemed to remain crystalline in the sample containing 30% CBG. Approximately 20% the original amount of CBG remained crystalline in the sample containing 40% CBG. Approximately 30% of the original amount of CBG remained solid in the sample containing 50% CBG and approximately 40% of the original mass of CBG remained solid in the solution containing 60% CBG.

SMILES	concentration up to which CBC gives a flowable and stable oil [1]	concentration of CBG in a flowable and stable oil made with bisabolol [2]
C=C(C)[C@@H]1CCC(C)=C[C@H]1c1c(O)cc(CCCCC)cc1O [CBD, cannabidiol, reference compound]	≤ 80%	–
C=C(C)[C@@H]1CCC(C)=C[C@H]1c1c(O)cc(CCCCC)c(C(=O)O)c1O [CBDA, cannabidiolic acid]	≤ 20%	–
CCCCCc1cc(O)c(C/C=C(\C)CCC=C(C)C)c(O)c1 [CBG, cannabigerol]	≤ 40%	greater than 60%
